Like-named read-outs stand apart in the source and are kept apart here. Where a SMILES comes first, the peptide text is derived from it. [ ]: non-standard residue; d: D form. The star is where a group is joined. X1 = OC[C@H]1O[C@@H](O[C@H]2[C@H](O)[C@@H](O)[C@H](*)O[C@@H]2CO)[C@H](O)[C@@H](O)[C@H]1O; Nle = CCCC[C@H](N)C(=O)O
Assays:
[1] = Time-locked brain microdialysis and blood sampling pharmacokinetics; details: for Brain Dialysate: AUC / Brain Dialysate: Cmax / Brain Dialysate: Tmax: 3 mg/kg IP, striatal microdialysis 0-60 min; for Brain Dialysate: AUC: TES2300 and TES2320 co-injected, estimated concentration by probe recovery; for Brain Dialysate: AUC / Brain Dialysate: Cmax: LC-MS/MS, mean ± SEM; for Brain Dialysate: Cmax: estimated by probe recovery
Source text: (§1) Mice (PN56-70) were anesthetized with isoflurane (1%) mixed with medical grade oxygen (0.75 L/min). Two incisions were made: a 0.5 cm incision in between the scapulae and a 1-cm ventral neck incision right of midline. The right carotid artery was isolated, ligated cranially with 4-0 silk, and temporarily occluded at the caudal end of the vessel with a micro clamp. A small incision was made into the carotid artery and PE-10 tubing, preflushed with heparin/glycerol (500 IU/ml, 50:50) and connected to a 28-gauge PinPort^TM (PNP3F28; Instech, Plymouth Meeting, PA), was advanced toward the heart. The clamp was released, the caudal ligature secured the catheter, and the catheter was tunneled subcutaneously to the scapular incision. Both incisions were closed with staples. The mouse was immediately transferred to a stereotaxic frame to implant the microdialysis probe.
(§2) A midsagittal skull incision was followed by a craniotomy (AP +0.5 mm, ML +2.0 mm from bregma). The dura was removed and a microdialysis probe (CMA12, 8309664, 4 mm membrane, 100 kDa cutoff; HBio, Holliston, MA) was inserted into the striatum (DV −5.0 mm).
(§3) Microdialysis probes were primed with artificial cerebrospinal fluid aCSF (15 mM Tris HCl, 10 mM Tris base, 126 mM NaCl, 2.5 KCl, 1.2 mM NaH2PO4, 2mM Na2SO4, and adjusted pH to 7.4) containing 0.05% bovine serum albumin (BSA) at a rate of 1 μL/minute using a two channel dual syringe pump (Fusion 101A Syringe Pump; Chemyx, Stafford, TX) for one-hour and then placed into the striatum at the coordinates listed above for 30-minutes prior to collecting baseline dialysate. Using the other pump channel, the preservation solution containing 150 ng/mL DADLE ([D-Ala2, D-Leu5]-Enkephalin; 10% acetic acid in 0.05% BSA in aCSF as an internal standard) is combined with the dialysate immediately via a micro-Tee at a flow rate of 1 μL/min (Figure 2A.). […] Dialysate was collected at −10, +10, +20, +30, +40, +50, and +60 minutes. Blood was collected at −5, +1, +5, +15, +25, +35, +45, and +55 minutes to correspond to the midpoint of the dialysate fraction. To separate plasma from whole blood, each sample was collected in ethylenediamine tetraacetic acid capillary tubes (CT-CB300-K2EDTA; Sarstedt, Nümbrecht, Germany), inverted repeatedly for 30 seconds, and centrifuged for 5 minutes at 2,500 x g in a refrigerated centrifuge (Galaxy Mini Centrifuge; VWR, Radnor, PA).
(§4) Biological sample preparation: Plasma samples (20 µL) were mixed with 20 µL of an internal standard working solution containing 150 ng/mL (DADLE) in 10% acetic acid. To precipitate proteins in both plasma and dialysate, 120 µL of ice-cold methanol was added to the plasma mixture and the dialysate samples (20 µL, premixed with preservation solution). After vortexing for 30 seconds, samples were centrifuged at 8,000 x g for 10-minutes at 4°C. The supernatant was evaporated using a Savant Speedvac concentrator. Dialysate and plasma samples were reconstituted in 20 μL of diluent (5% methanol and 0.1% formic acid in nanopure water).
(§5) Liquid chromatography and mass spectrometry: Samples were injected into the Thermo Fisher Scientific UHPLC-MS/MS TSQ system. Separation was achieved on an ACQUITY UPLC HSS T3 C18 Column (100 Å, 1.8 µm, 2.1 × 100 mm) and VanGuard pre-column (HSS T3 1.8 μm, 2.1 × 5 mm) and a HyperSep Retain PEP trap column (2.1 × 10 mm) with the column temperature set at 40 °C. We used a water-acetonitrile gradient with a flow rate of 0.2 mL/min and a total run time of 25. The mobile phases used were A: 0.1% v/v formic acid in deionized water and B: 0.1% v/v formic acid in acetonitrile, with the following conditions: 0 to 1 min (2 %B diverted to waste), 1.0 to 1.2 min (5% B), 1.2 min to 6 min (15% B), 6 min to 11 min (30% B), 11 min to 12.5 min (95% B), 12.5 min to 18 min (95% B), 18 min to 18.5 min (5 %B) 18.5 min to 23.5 min (5% B), 23.5 min to 25 min (2 %B). Injection volumes of 10 µL for dialysate and 5 µL for the plasma sample were used.

[2] = PWR membrane partitioning into receptor-free egg phosphatidylcholine membranes; type: physicochemical
[3] = system: male C57BL/6 mice, repetitive closed-head mTBI
LHb neurons = assay: LHb neuronal excitability, intrinsic properties, rebound bursting, Ih and M-currents in slices after in vivo treatment; set-up: species or system male C57BL/6 mice; details: for effect on mTBI-induced LHb hyperexcitability (APs on depolarization): vs mTBI+vehicle P<0.0001, 2-way ANOVA
VPAC1 receptors = details: cited from earlier work
in vivo = details: C57Bl/6J, mouse, ip, 3 mg/kg
Source text: as §1, §2, §3, §4, §5

human PAC1 receptor = molecular target: T1, human PAC1 receptor (Homo sapiens, UniProt P41586); assay: biochemical
T1 sequence (P41586 21-468): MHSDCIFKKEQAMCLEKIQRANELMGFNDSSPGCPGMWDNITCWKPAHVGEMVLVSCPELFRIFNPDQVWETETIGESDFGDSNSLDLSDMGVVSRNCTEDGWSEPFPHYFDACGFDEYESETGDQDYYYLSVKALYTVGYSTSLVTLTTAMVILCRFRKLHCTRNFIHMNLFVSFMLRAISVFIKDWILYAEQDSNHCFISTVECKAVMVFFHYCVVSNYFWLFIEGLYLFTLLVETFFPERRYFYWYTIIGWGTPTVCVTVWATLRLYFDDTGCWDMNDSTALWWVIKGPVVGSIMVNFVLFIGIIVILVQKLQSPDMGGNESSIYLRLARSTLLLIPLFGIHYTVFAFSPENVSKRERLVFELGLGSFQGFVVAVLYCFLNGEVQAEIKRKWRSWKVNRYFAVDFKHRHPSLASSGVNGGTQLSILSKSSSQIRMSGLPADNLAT
Source text: Plasmon Waveguide Resonance (PWR) spectroscopy, an enhanced technology related to Surface Plasmon Resonance (SPR) is capable of monitoring molecular anisotropy and measuring mass and structural changes in real time along with molecular interactions with receptor in the lipid bilayer. PWR was utilized to quantify label-free ligand binding affinities. Intact cell membranes containing human PAC1 receptors (purified and isolated from CHO cells, as described below) were immobilized onto the silica surface of a PWR prism element.
The prism was integrated into a PWR spectrometer system (Mainline Scientific, Malvern, PA). […] Binding events, along with any associated conformational shifts in the receptor or lipid matrix, were directly monitored via the angular resonance shifts of parallel (p-polarized) and perpendicular (s-polarized) light.

[4] = C57Bl/6J mice, co-injected, n=4, SEM
[5] = C57Bl/6J mice, co-injected, n=4
[6] = C57Bl/6J, mouse, plasma, ip, 3 mg/kg, SEM
[7] = early intervention, 10 mg/kg i.p. x5
[8] = late intervention, single 10 mg/kg i.p.
[9] = C57Bl/6J mice, 3 mg/kg IP each, co-injected, 0-60 min, n=4, ratio paired t-test

CCCC[C@H](NC(=O)[C@H](CCC(N)=O)NC(=O)[C@H](CCCCN)NC(=O)[C@H](CCCNC(=N)N)NC(=O)[C@H](Cc1ccc(O)cc1)NC(=O)[C@H](CCCNC(=N)N)NC(=O)[C@H](CO)NC(=O)[C@H](Cc1ccc(O)cc1)NC(=O)[C@H](CO)NC(=O)[C@H](CC(=O)O)NC(=O)[C@@H](NC(=O)[C@H](Cc1ccccc1)NC(=O)[C@@H](NC(=O)CNC(=O)[C@H](CC(=O)O)NC(=O)[C@H](CO)NC(=O)[C@@H](N)Cc1c[nH]cn1)[C@@H](C)CC)[C@@H](C)O)C(=O)N[C@@H](C)C(=O)N[C@H](C(=O)N[C@@H](CCCCN)C(=O)N[C@@H](CCCCN)C(=O)N[C@@H](Cc1ccc(O)cc1)C(=O)N[C@@H](CC(C)C)C(=O)N[C@@H](CO)C(N)=O)C(C)C [TES2300] (H-HSDGIFTDSYSRYRKQ[Nle]AVKKYLS-NH2; N-terminus assumed)
Brain Dialysate: AUC ([1]; C57Bl/6J mice, n=4, SEM): 703 ± 338 ng·min/mL
Brain Dialysate: Cmax [1, 4]: 64 ± 21 ng/mL
Brain Dialysate: Tmax [1, 5]: 8 min
Kp ([1]; C57Bl/6J, mouse, brain dialysate / plasma, ip, 3 mg/kg): 0.513
Tmax ([1]; C57Bl/6J, mouse, plasma, ip, 3 mg/kg): 4 min
AUC(0-t) [1, 6]: 22.8 ng·h/mL
Cmax [1, 6]: 106 ± 25 ng/mL
half-life [1, 6]: 8 ± 4 min
affinity for PC bilayers relative to TES2320 ([2]; PWR, PC bilayers, unglycosylated variant vs TES2320): ten fold higher affinity
Kd ([2]; as quoted in the pharmacokinetics section, membrane not specified, read-out: Kd, affinity for the membrane): 114 pM

CCCC[C@H](NC(=O)[C@H](CCC(N)=O)NC(=O)[C@H](CCCCN)NC(=O)[C@H](CCCNC(=N)N)NC(=O)[C@H](Cc1ccc(O)cc1)NC(=O)[C@H](CCCNC(=N)N)NC(=O)[C@H](CO)NC(=O)[C@H](Cc1ccc(O)cc1)NC(=O)[C@H](CO)NC(=O)[C@H](CC(=O)O)NC(=O)[C@@H](NC(=O)[C@H](Cc1ccccc1)NC(=O)[C@@H](NC(=O)CNC(=O)[C@H](CC(=O)O)NC(=O)[C@H](CO)NC(=O)[C@@H](N)Cc1c[nH]cn1)[C@@H](C)CC)[C@@H](C)O)C(=O)N[C@@H](C)C(=O)N[C@H](C(=O)N[C@@H](CCCCN)C(=O)N[C@@H](CCCCN)C(=O)N[C@@H](Cc1ccc(O)cc1)C(=O)N[C@@H](CC(C)C)C(=O)N[C@@H](CO[C@@H]1O[C@H](CO)[C@@H](O[C@@H]2O[C@H](CO)[C@H](O)[C@H](O)[C@H]2O)[C@H](O)[C@H]1O)C(N)=O)C(C)C [TES2320] (H-HSDGIFTDSYSRYRKQ[Nle]AVKKYLS(X1)-NH2; N-terminus assumed)
total grooming time, sucrose splash test ([3]; early intervention, 10 mg/kg i.p. x5, n=12): no effect
latency to groom, sucrose splash test ([3]; early intervention, 10 mg/kg i.p. x5, n=12, vs mTBI+vehicle p<0.05, one-way ANOVA): effective in preventing the prolonged grooming latency
latency to groom, sucrose splash test ([3]; late intervention, single 10 mg/kg i.p., n=11, vs sham or early TES2320 p<0.01): continued to exhibit increased grooming latency
total grooming time, sucrose splash test ([3]; mouse, in vivo, ip, 10 mg/kg): significantly decreased the total grooming time
effect on mTBI-enhanced Ih currents in LHb neurons (LHb neurons; [7]): insufficient to prevent this Ih enhancement
effect on mTBI-reduced M-currents in LHb neurons (LHb neurons; [7]): Neither early nor late TES2320 intervention in mTBI mice normalized this reduction
effect on mTBI-induced LHb hyperexcitability (APs on depolarization) (LHb neurons; early intervention, 10 mg/kg i.p. x5, n=85 cells/13 mice): normalized this hyperexcitability to sham levels
effect on mTBI-induced hyperpolarization-induced rebound bursting (LHb neurons; early intervention, 10 mg/kg i.p. x5, vs mTBI+vehicle p<0.01, 2-way ANOVA): normalize this mTBI-induced increase in rebound bursting
effect on mTBI-induced hyperpolarization-induced rebound bursting (LHb neurons; [8]): no effect
effect on mTBI-reduced M-currents in LHb neurons (LHb neurons; [8]): Neither early nor late TES2320 intervention in mTBI mice normalized this reduction
effect on mTBI-induced LHb hyperexcitability (APs on depolarization) (LHb neurons; late intervention, single 10 mg/kg i.p., n=31 cells/5 mice): normalized this hyperexcitability to sham levels
fast afterhyperpolarization (fAHP) amplitude of LHb neurons (LHb neurons; late intervention, single 10 mg/kg i.p., vs mTBI+vehicle p<0.05, one-way ANOVA): significantly diminished
effect on mTBI-enhanced Ih currents in LHb neurons (LHb neurons; late intervention, single 10 mg/kg i.p., vs sham+vehicle p<0.0001): exaggerated this effect
functional potency at VPAC1 receptors (VPAC1 receptors): picomolar functional potency
Tmax (in vivo): 10 min
AUC(0-t) (in vivo; SEM): 101 ng·h/mL
Cmax (in vivo; SEM): 313 ± 62 ng/mL
half-life (in vivo; SEM): 13 ± 6 min
Kd (human PAC1 receptor): 4.5 pM
fold increase of AUC over TES2300 in the CSF (brain dialysate) [1, 9]: 1.43 fold
fold increase of AUC over TES2300 in the plasma [1, 9]: 4.73 fold
Brain Dialysate: AUC ([1]; C57Bl/6J mice, n=4, SEM): 1071 ± 574 ng·min/mL
Brain Dialysate: Cmax [1, 4]: 74 ± 22 ng/mL
Brain Dialysate: Tmax [1, 5]: 8 min
Kd ([2]; PWR, receptor-free egg phosphatidylcholine (eggPC) control membranes, read-out: Kd, baseline membrane partitioning affinity): 1350 pM
